Data taken from PubChem BioAssay (NCI).
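Where inhibition never reached the appropriate level, the endpoint shown equals the highest concentration tested. Otherwise, values were interpolated linearly from a five-concentration, 48-hour dose response in 96-well plates. TGI denotes the concentration required for complete inhibition of growth.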

Key:
Experiment in all cases: NCI anticancer screen, dose series, 48 h
EKVX NSCLC = system: EKVX NSCLC
A549 NSCLC = system: A549 NSCLC
SN12C renal = system: SN12C renal
IGROV1 ovarian = system: IGROV1 ovarian
SK-OV-3 ovarian = system: SK-OV-3 ovarian
A498 renal = system: A498 renal
PC-3 prostate = system: PC-3 prostate
SK-MEL-5 melanoma = system: SK-MEL-5 melanoma
KM12 colon = system: KM12 colon
UACC-62 melanoma = system: UACC-62 melanoma
SNB-75 CNS = system: SNB-75 CNS
RPMI-8226 leukemia = system: RPMI-8226 leukemia

| Compound | TGI (EKVX NSCLC) | TGI (A549 NSCLC) | TGI (SN12C renal) | TGI (IGROV1 ovarian) | TGI (SK-OV-3 ovarian) | TGI (A498 renal) | TGI (PC-3 prostate) | TGI (SK-MEL-5 melanoma) | TGI (KM12 colon) | TGI (UACC-62 melanoma) | TGI (SNB-75 CNS) | TGI (RPMI-8226 leukemia) |
| --- | --- | --- | --- | --- | --- | --- | --- | --- | --- | --- | --- | --- |
| CN(C)CC1CCC/C(=C\c2ccccc2)C1=O (stereo not drawn) | 33.7 µM | 38.2 µM | 18.5 µM | 13.9 µM | 34 µM | 31.2 µM | 21 µM | 21.4 µM | 2.59 µM | 20.2 µM | 26.7 µM |  |
| CC(C)(C)n1c(=O)n2n(c1=O)C1c3cccc4cccc(c34)C2C2c3cccc4cccc(c34)C1n1c(=O)n(C(C)(C)C)c(=O)n12 | > 100 µM | > 100 µM | > 100 µM | > 100 µM | > 100 µM | > 100 µM | > 100 µM | > 100 µM | > 100 µM | > 100 µM | > 100 µM | > 100 µM |
| C(#CC1(Nc2ccccc2)CCN(Cc2ccccc2)CC1)C1(Nc2ccccc2)CCN(Cc2ccccc2)CC1 | > 46.4 µM | > 56.2 µM | > 56.2 µM | > 46.4 µM | 13.1 µM | > 46.4 µM | 36.5 µM | 18.3 µM | > 56.2 µM | 21.4 µM | 29.7 µM | 4.88 µM |
| O=S(=O)(CCC[C@H]1[C@@H](CCOCc2ccccc2)C2CCCN1O2)c1ccccc1 (stereo partly drawn) | > 100 µM | > 100 µM | > 100 µM | > 100 µM | > 100 µM | > 100 µM | > 100 µM | > 100 µM | > 100 µM | > 100 µM | > 100 µM |  |
| COc1cc(CNc2c3ccccc3nc3ccccc23)cc(OC)c1OC | 21.4 µM | 12.7 µM | 15.3 µM | 25.2 µM | 28.4 µM | 7.71 µM | 11.9 µM | 7.83 µM | 21.3 µM | 7.74 µM | 13.9 µM | > 27.3 µM |
| CC(C)(C)[Si](C)(C)OCC1OC(n2ccc(=O)[nH]c2=O)C(O[Si](C)(C)C(C)(C)C)[C@]12O[C@@H]2CO (stereo partly drawn) | 36.6 µM | 26.6 µM | 36.3 µM | 33.1 µM | 30.5 µM | 38.7 µM | 16.8 µM | 34.7 µM | 35 µM | 36.8 µM | 40.4 µM | > 100 µM |
| C#CCOCn1cc(C)c(=O)[nH]c1=O | > 100 µM | > 100 µM | > 100 µM | > 100 µM | > 100 µM | > 100 µM | > 100 µM | > 100 µM | > 100 µM | > 100 µM | > 100 µM | > 100 µM |
| C/C=C\C(CC(=O)OC)CC(=O)N(CCC1CN(S(=O)(=O)C(F)(F)F)c2ccccc21)Cc1ccc(OC)cc1OC (stereo not drawn) | > 100 µM | > 100 µM | > 100 µM | > 100 µM | > 100 µM | > 100 µM | > 100 µM | > 100 µM | > 100 µM |  | > 100 µM | > 100 µM |
| Cc1cc(C)nc(NS(=O)(=O)c2ccc(NC(=O)NC(F)(F)F)cc2)n1 | > 100 µM | > 100 µM | > 100 µM | > 100 µM | > 100 µM | > 100 µM | > 100 µM | > 100 µM |  |  | > 100 µM | > 100 µM |
